System: C57BL/6J mice
Assay: FeCl3-induced carotid artery thrombosis model
Type: in vivo
Conditions: heparin sodium 2.7 mg/kg by tail vein 10 min before 6% FeCl3; observed 30 min; n = 6
Description: The in vivo antithrombotic activity of WPK5-Mut was evaluated by using a FeCl3-induced carotid artery thrombosis model in mice. Mice (C57BL/6J, males, 18–22 g) were anesthetized by intraperitoneal injection of chloral hydrate (5%, 10 mL/kg) and then placed in a supine position on a heating pad (37 °C) to maintain body temperature. An incision was made in the middle of the mouse’s neck and the fascia and muscle were gradually separated to expose the carotid artery. A rubber strip (4 × 10 mm) was placed under the artery to separate it from the surrounding tissues, and mice were injected heparin sodium (2.7 mg/kg), WPK5-Mut (0.75, 1.5 and 3 mg/kg) or saline through the tail vein and placed under a laser speckle contrast imaging (moor FLPI-2, Moor Instruments Limited, Millwey, Axminster, Devon, EX13 5HU, UK) to observe the carotid blood flow. […] The occlusion time was defined as the time from the removal of the FeCl3 saturated filter paper to the blockage of the vessel for at least 3 consecutive min [44]. If a vessel is blocked at a certain time for 3 consecutive min, this time is recorded as occlusion time, and if no blockage occurs within 30 min, the occlusion time is recorded as 30 min. The blood flow was analyzed by moorFLPI ReviewV50 software.

Substance: heparin sodium
- occlusion time: > 30 min

Source: publication PMC8698482, “WPK5, a Novel Kunitz-Type Peptide from the Leech Whitmania pigra Inhibiting Factor XIa, and Its Loop-Replaced Mutant to Improve Potency” (Biomedicines, 2021)
